Laboratory results from ChEMBL document CHEMBL3243927, “5,6,7,8-Tetrahydroquinolines. 5. Antiulcer and antisecretory activity of 5,6,7,8-tetrahydroquinolinethioureas and related heterocycles” (J Med Chem, 1977).
Activity calls are given as the source filed them. The calls are words filed in the database; no cut-off is given here.

Legend:
Rattus norvegicus [1] = test: Antiulcer activity in Sprague-Dawley rat assessed as inhibition of cold-restraint stress-induced gastric erosion at 100 mg/kg, po after 3 hrs; format: functional, organism-based; parameters: dose 100 mg/kg; details: Stomach
Rattus norvegicus [2] = test: Antisecretory activity in pylorus-ligated Sprague-Dawley rat assessed as inhibition of gastric juice secretion at 30 mg/kg administered intraduodenally after 4 hrs by potentiographic titration analysis relative to control; format: functional, organism-based; parameters: dose 30 mg/kg
Rattus norvegicus [3] = test: Toxicity in po dosed Sprague-Dawley rat assessed as mortality; format: organism-based; details: in vivo
Rattus norvegicus [4] = test: Antiulcer activity in Sprague-Dawley rat assessed as inhibition of cold-restraint stress-induced gastric erosion at 30 mg/kg, po after 3 hrs; format: functional, organism-based; parameters: dose 30 mg/kg; details: Stomach
Rattus norvegicus [5] = test: Antisecretory activity in pylorus-ligated Sprague-Dawley rat assessed as inhibition of gastric juice secretion at 10 mg/kg administered intraduodenally after 4 hrs by potentiographic titration analysis; format: functional, organism-based; parameters: dose 10 mg/kg

| Compound | Activity (Rattus norvegicus [1]) | Activity (Rattus norvegicus [2]) | Activity (Rattus norvegicus [3]) | Activity (Rattus norvegicus [4]) | Activity (Rattus norvegicus [5]) |
| --- | --- | --- | --- | --- | --- |
| CN/C(=N/C#N)NC1CCCc2cc(C)cnc21 (configuration not stated) | inactive | inactive | – | – | – |
| CN/C(=N/C(N)=O)NC1CCCc2cc(C)cnc21 (configuration not stated) | inactive | inactive | – | – | – |
| Cc1cnc2c(c1)C(NC(=S)NC(=O)c1ccccc1)CCC2 (configuration not stated) | – | inactive | Toxic | – | – |
| CCCCNC(=S)N1CCc2cccnc21 | inactive | inactive | – | – | – |
| CNC(=S)N1CCCc2ncccc21 | – | Active | – | Active | – |
| CNC(=S)NC(C)C1CCCc2cc(C)cnc21 (configuration not stated) | inactive | inactive | – | – | – |
| CNC(=S)N1CCc2ncc(C)cc2C1 | Active | inactive | – | – | – |
| Cc1cnc2c(c1)CCCC2NC(=S)NC(=O)c1ccccc1 (configuration not stated) | inactive | inactive | – | – | – |
| S=C1NCc2cccnc2N1 | inactive | inactive | – | – | – |
| CNC(=S)N1CCc2cccnc21 | – | Active | – | Active | – |
| CNC(=S)N1CCCc2cccnc21 | – | Active | – | Active | – |
| NC(=S)N1CCc2cccnc21 | – | – | Toxic | – | Active |
| CNC(=S)NC1CCCc2cc(C)cnc21 (configuration not stated) | Active | – | – | – | Active |
| CNC(=S)N1CCCCc2cccnc21 | inactive | – | – | – | Active |
| Cc1cnc2c(c1)C(NC(=S)Nc1ccccc1)CCC2 (configuration not stated) | inactive | Active | – | – | – |
| O=C(NC(=S)N1CCc2cccnc21)c1ccccc1 | inactive | inactive | – | – | – |
| CNC(=S)NC1CCCc2ncc(C)cc21 (configuration not stated) | inactive | inactive | – | – | – |
| CS/C(=N/C#N)NC1CCCc2cc(C)cnc21 (configuration not stated) | inactive | – | – | – | – |
| Cc1cnc2c(c1)C(NC(N)=S)CCC2 (configuration not stated) | inactive | – | – | – | – |
| CN/C(=N/C(N)=S)NC1CCCc2cc(C)cnc21 (configuration not stated) | Active | inactive | – | – | – |
| Cc1cnc2c(c1)CCCC2NC(N)=S (configuration not stated) | Active | Active | – | – | – |
| NC(=S)N1CCCCc2cccnc21 | inactive | Active | – | – | – |
